Common to all, as to assay: growth of human tumour cells (NCI), 48 h
The test system of assay [1] is U251 CNS.
For assay [2], the system named is TK-10 renal.
Assay [3] concerns SW-620 colon.
The subject of assay [4] is SK-MEL-2 melanoma.
The test system of assay [5] is SN12C renal.
Assay [6] concerns SK-MEL-28 melanoma.
Assay [7] has as its system RPMI-8226 leukemia.
In assay [8] the test system is CCRF-CEM leukemia.
Assay [9] deals with NCI-H522 lung.
Assay [10] deals with RXF 393 renal.

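Five compound concentrations were applied to cells in 96-well plates for 48 hours; endpoints were derived by simple linear interpolation of the resulting dose-response curve. GI50 is the concentration that inhibits growth by half. TGI: concentration producing complete growth inhibition.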 *1 amine or outer side, *2 acyl side, *3 side chain or, on linkers, in order; H or OH if unused. Where a SMILES comes first, the peptide text is derived from it. Bridges are numbered along the chain shown (N, C = ends). [ ]: non-standard residue; d: D form. The star is where a group is joined. X19 = O=C([C@H](N[*:1])c1ccc(O[C@H]2O[C@@H](CO)[C@@H](O)[C@@H](O)[C@H]2O[C@@H]2O[C@H](CO)[C@H](O)[C@H](O)[C@@H]2O)cc1)[*:2]; X18 = NC(=O)[C@@H](O[*:3])[C@H](N[*:1])C(=O)[*:2]; X20 = O=C([C@H](N[*:1])c1ccc(O)c(Cl)c1)[*:2]; d(aThr) = C[C@@H](O)[C@@H](N)C(=O)O; dHpg = N[C@@H](C(=O)O)c1ccc(O)cc1; X17 = CC(C)C/C=C/C=C/C(=O)*; dOrn = NCCC[C@@H](N)C(=O)O Some results are limits rather than exact numbers.

With `CC(=O)NNC(=S)/N=C/c1c(O)cc(C)oc1=O`, the TGI in assay [1], in [2], in assay [3], in [4], in [5] and in [6] was over 100 µM throughout.

Take `COc1cc2ccnc3c2c(c1OC)CC1CC(O)C(OC)CC31` (centres undefined): the TGI in assay [1], in assay [7], in assay [2], in assay [3], in [8] and in [4] was over 100 µM each time. Moreover, the TGI in [5] is over 100 µM; in assay [9] it was over 100 µM; in assay [6], 75.2 µM.

Consider `C[C@]12CC(C#N)C(=O)C(O)=C1CC[C@@H]1C2CC[C@@]2(C)C1CC[C@@H]2O` (some centres undefined), for which the TGI in [1], in assay [7], in assay [2], in assay [3], in assay [8] and in assay [4] was over 100 µM each time. For the same compound, the TGI in [5] is over 100 µM; in [10], 44.4 µM; in [6], over 100 µM.

For `C[C@@H](NC1CCC[C@@H]1O)c1ccccc1` (some centres undefined), the TGI in assay [1], in assay [7], in assay [2], in assay [3], in [8] and in assay [4] was over 100 µM throughout. For the same compound, the TGI in assay [5], in [10] and in [6] was over 100 µM throughout.

With `Cc1cccc2c1O/C(=C\c1ncc([N+](=O)[O-])n1C)C2=O`, the GI50 in assay [1] is 0.371 µM; in assay [7], 0.589 µM; in [2], 0.257 µM; in assay [3], 0.0888 µM; in [8], 0.0701 µM; in [4] it was 0.246 µM. The GI50 in [9] is 0.188 µM; in assay [6], 0.24 µM. Moreover, the TGI in assay [1] amounted to 1.64 µM; in assay [7] it was 2.01 µM; in assay [2], 0.66 µM; in assay [3], 0.537 µM; in [8], 0.597 µM; in assay [4], 0.584 µM. In addition, the TGI in assay [9] worked out at 0.523 µM; in assay [6], 0.688 µM.

On to `O=C(O)CCSC(=O)Nc1cccc([N+](=O)[O-])c1`, for which the TGI in assay [1], in [7], in assay [2], in assay [3], in assay [8] and in assay [4] was over 100 µM throughout. Besides, the TGI in assay [5], in [10] and in assay [6] was over 100 µM each time.

On to `COC1OC(CBr)C(OC(c2ccccc2)(c2ccccc2)c2ccccc2)C(OC(c2ccccc2)(c2ccccc2)c2ccccc2)C1OC(c1ccccc1)(c1ccccc1)c1ccccc1` (centres undefined), for which the TGI is over 100 µM in assay [7]; over 100 µM in assay [2]; over 100 µM in assay [3]; over 100 µM in [8]; over 100 µM in assay [5]; 40.8 µM in [9]. The TGI in assay [10] and in assay [6] was over 100 µM each time.

On to `Cc1[nH]c2ccccc2c1C1CC(=O)NC1=O` (centres undefined), for which the TGI in assay [1], in assay [7], in assay [2], in [3], in assay [8] and in [4] was over 100 µM in each case. Moreover, the TGI in assay [10] and in assay [6] was over 100 µM throughout.

For `N#Cc1ccc(-c2nc3ccc(Cl)cc3[nH]2)cc1`, the TGI in assay [1], in assay [7], in assay [3], in [8], in assay [4] and in [5] was over 100 µM each time. Besides, the TGI in [9] and in [10] was over 100 µM throughout.

Consider `N#CC(C(=O)CCC(=O)Nc1ccc(Cl)cc1)c1ccccc1Cl` (centres undefined), for which the TGI in assay [1], in [7], in assay [2], in assay [3], in assay [8] and in [4] was over 100 µM throughout. For the same compound, the TGI in [5], in [9] and in assay [6] was over 100 µM in each case.

`O=C(COc1ccc(Cl)cc1)N1N=C(c2ccc([N+](=O)[O-])o2)CC1(O)c1ccccc1` (centres undefined): the TGI in assay [1] worked out at 15.5 µM; in assay [7], 18.3 µM; in assay [2] it was 20.6 µM; in assay [3], 21.5 µM; in assay [4], 21 µM; in assay [5], 15.8 µM. The TGI in assay [9] turned out to be 38.6 µM; in assay [6] it was 25.1 µM.

Regarding `CC1(C)CCC2(C(=O)O)CC[C@]3(C)C(=CCC4C5(C)CC[C@H](OC6OC(C(=O)O)C(O)C(OC7OC(CO)C(O)C(O)C7O)C6OC6OC(CO)C(O)C(O)C6O)C(C)(C)C5CCC43C)C2C1` (some centres undefined), the GI50 in [1] is 32.3 µM; in [7] it was 50.9 µM; in assay [2], over 100 µM; in assay [3], over 100 µM; in [8], over 100 µM; in assay [4], over 100 µM. The GI50 in assay [5] is 84 µM; in [9] it was 38.4 µM; in assay [10], over 100 µM. Besides, the TGI in [1] was 89.4 µM; in assay [7], over 100 µM; in [2], over 100 µM; in assay [3] it was over 100 µM; in [8], over 100 µM; in assay [4], over 100 µM. Further, the TGI in assay [5], in assay [9] and in assay [10] was over 100 µM in each case.

As to `C[Si](C)(C)/C=C\CCCN1C(=O)CCC1=O`, the TGI in [1], in assay [7], in assay [2], in [3], in [8] and in assay [4] was over 100 µM throughout. Moreover, the TGI in [5], in assay [9] and in assay [6] was over 100 µM throughout.

`C=CCCC(C)N(C(=O)OC(C)(C)C)S(=O)(=O)c1ccc(C)cc1` (centres undefined): the TGI in assay [1], in assay [7], in assay [2], in assay [3], in assay [4] and in assay [5] was over 100 µM throughout. The TGI in assay [9] and in assay [6] was over 100 µM throughout.

With `CC1=C(/C=C/C2=CC(=C\C(=O)O)/CC(C3=C(C)CCCC3(C)C)C2)C(C)(C)CCC1` (centres undefined), the TGI in [1] was 23.1 µM; in assay [7] it was 27 µM; in assay [2] it was 27.3 µM; in assay [3], 29.1 µM; in [4], 23.5 µM; in assay [5], 32.3 µM. The TGI in [9] came out at 22.7 µM; in assay [10], 22.6 µM; in [6], 29.5 µM.

For the compound `S=P(c1ccccc1)(c1ccccc1)C1(C2(P(=S)(c3ccccc3)c3ccccc3)CC2)CC1`, the TGI in assay [1], in assay [2], in assay [3], in [8], in assay [4] and in assay [5] was over 100 µM throughout. The TGI in assay [9], in assay [10] and in assay [6] was over 100 µM each time.

For `CCCC#CC(O)(C(=O)OC1CCN(C)CC1)C1CCCCC1` (centres undefined), the TGI in assay [1], in [7], in assay [2], in [3], in [8] and in assay [4] was over 100 µM in each case. The TGI in [5], in assay [10] and in assay [6] was over 100 µM in each case.

As for `COc1cc2c(=O)n(CCCn3ccnc3)c3c4cc5c(cc4ccc3c2cc1OC)OCO5`, the GI50 in [1] is 0.393 µM; in assay [2], 36 µM; in assay [3] it was 0.49 µM; in assay [8], 0.34 µM; in assay [4] it was 8.06 µM; in assay [5], 0.635 µM. For the same compound, the GI50 in [9] was 0.324 µM; in assay [10], 0.316 µM; in assay [6], 2 µM. The TGI was 15.8 µM in assay [1]; over 100 µM in assay [2]; over 100 µM in assay [3]; over 100 µM in assay [8]; over 83.8 µM in [4]; over 100 µM in assay [5]. The results for the TGI in assay [9], in assay [10] and in [6] were 17.1 µM, 14.3 µM and over 100 µM, respectively.

`CC(C)C/C=C/C=C/C(=O)N[C@@H](CC(N)=O)C(=O)N[C@@H]1C(=O)N[C@H](c2ccc(O)cc2)C(=O)N[C@H](CCCN)C(=O)N[C@H]([C@@H](C)O)C(=O)N[C@H](c2ccc(O)cc2)C(=O)N[C@H](c2ccc(O)cc2)C(=O)N[C@H]([C@H](C)O)C(=O)N[C@H](Cc2ccccc2)C(=O)N[C@H](CCCN)C(=O)N[C@H](c2ccc(O[C@H]3O[C@@H](CO)[C@@H](O)[C@@H](O)[C@H]3O[C@@H]3O[C@H](CO)[C@H](O)[C@H](O)[C@@H]3O)cc2)C(=O)N[C@H]([C@H](C)O)C(=O)N[C@H](c2ccc(O)cc2)C(=O)NCC(=O)N[C@H](CC(C)C)C(=O)N[C@H](C)C(=O)N[C@H](c2ccc(O)c(Cl)c2)C(=O)O[C@@H]1C(N)=O` (X17-N[X18][dHpg][dOrn][d(aThr)][dHpg][dHpg][dT][dF][dOrn][X19][dT][dHpg]G[dL][dA][X20]; ester 2-C): the GI50 in [1] was 24.1 µM; in [7], 59.8 µM; in [2], 38.7 µM; in assay [3], 26.2 µM; in assay [4] it was over 100 µM; in assay [5], over 100 µM. The values for the GI50 in assay [9], in assay [10] and in assay [6] were 33.9 µM, 86 µM and 23.6 µM, respectively. The TGI in assay [1] was 55 µM; in assay [7] it was over 100 µM; in assay [2], 91.1 µM; in assay [3], 74.8 µM; in assay [4], over 100 µM; in [5], over 100 µM. The TGI in assay [9] is over 100 µM; in assay [10], over 100 µM; in [6], 47.8 µM.

Regarding `COc1ccc(C(=O)C(Br)C(Br)C(=O)O)cc1` (centres undefined), the TGI in assay [1] was over 100 µM; in [7], 53.2 µM; in [2], over 100 µM; in assay [3], 52.3 µM; in [4] it was over 100 µM; in [5], over 100 µM. The TGI in assay [9] was 34.9 µM; in assay [10], 56.4 µM; in assay [6] it was over 100 µM.

As for `NCCCn1c2c(c3cc4c(cc3c1=O)OCO4)C(=O)c1ccccc1-2`, the GI50 is 0.321 µM in [1]; 1.98 µM in assay [2]; 0.0279 µM in [8]; 2.91 µM in assay [4]; 0.975 µM in [5]; 1.92 µM in assay [9]. Besides, the TGI in assay [1] was 0.753 µM; in assay [7], 0.208 µM; in assay [2], 5.75 µM; in assay [8] it was 0.379 µM; in [4], over 70.3 µM; in assay [5], 2.49 µM. The compound further had a TGI in assay [9] of 4.39 µM.

`Cc1ccc(C(=O)CCC2C(=O)CC(C)(C)CC2=O)cc1`: the TGI is over 100 µM in assay [1]; over 100 µM in assay [2]; over 100 µM in [3]; 55.1 µM in assay [8]; over 100 µM in assay [4]; over 100 µM in [5]. For the same compound, the TGI was 34.4 µM in assay [9], over 100 µM in [10] and over 100 µM in assay [6].

On to `CC(Oc1ccc(OCC2CCCCC2)cc1)C(=O)O` (centres undefined), for which the TGI in [1], in assay [2], in [3], in [8], in assay [4] and in [5] was over 100 µM throughout. Further, the TGI in assay [9] and in [6] was over 100 µM throughout.

With `CC(=O)O[C@H]1C(=O)[C@@]2(C)[C@H]([C@H](OC(=O)c3ccccc3)[C@]3(O)C[C@H](OC(=O)[C@H](O)[C@@H](NC(=O)CC(C)C)c4ccccc4)C(C)=C1C3(C)C)[C@]1(OC(C)=O)CO[C@@H]1C[C@@H]2O`, the TGI in assay [1], in assay [2], in [3], in assay [8], in assay [4] and in [5] was over 10 µM in each case. Also, the TGI in [9] is 0.0135 µM; in [6] it was over 10 µM.

Source of the values: PubChem BioAssay (NCI).
